Results as given in patent publication US12391662B2, “Lipid compounds and lipid nanoparticle compositions” (RINUAGENE BIOTECHNOLOGY CO., LTD., priority 2022, dated 2025).

Columns and labels:
[1] = LNP particle size and PDI (Malvern ZetaSizer); assay type: physicochemical; conditions: LNP of Compound:cholesterol:DSPC:DMG-PEG2000=50:38.5:10:1.5 encapsulating mRNA
Experimental: The mRNA stock solution was dispersed in 20 mM acetic acid solution (pH 5.0) to give a final concentration of 200 μg/mL (aqueous phase). […] The mRNA was mixed with the lipid mixture by T-mixing and controlling the flow rate of aqueous phase and oil phase (3:1) with a total flow rate of 12-50 ml/min, to obtain LNP-encapsulated mRNA. The encapsulated LNP was diluted with buffer (pH 5.0-5.5) and then concentrated by ultrafiltration with replacement of diluent, and finally LNP was concentrated to 200 μg/mL˜600 μg/mL of mRNA, while the pH of LNP was adjusted to about 7-8. […]

[2] = LNP mRNA encapsulation efficiency (Quant-iT RiboGreen RNA Assay Kit); assay type: physicochemical; conditions: LNP of Compound:cholesterol:DSPC:DMG-PEG2000=50:38.5:10:1.5 encapsulating mRNA
Experimental: The mRNA stock solution was dispersed in 20 mM acetic acid solution (pH 5.0) to give a final concentration of 200 μg/mL (aqueous phase). […] The mRNA was mixed with the lipid mixture by T-mixing and controlling the flow rate of aqueous phase and oil phase (3:1) with a total flow rate of 12-50 ml/min, to obtain LNP-encapsulated mRNA. The encapsulated LNP was diluted with buffer (pH 5.0-5.5) and then concentrated by ultrafiltration with replacement of diluent, and finally LNP was concentrated to 200 μg/mL˜600 μg/mL of mRNA, while the pH of LNP was adjusted to about 7-8. Finally, Quant-iT™ RiboGreen™ RNA Assay Kit (Invirtogen by Thermo Fisher Scientific, cat #R11490), and 10% Triton X-100 solution or 10% OTG solution as an emulsion breaker were used to detect the total and free content of mRNA in the LNP, and the encapsulation efficiency of LNP was calculated.

rats = assay: Toxicity assay: serum ALT/AST and deaths after single intravenous dose of Luciferase mRNA LNPs; assay type: in vivo; conditions: LNP intravenous single dose 3 mg/kg, serum 24 hours after administration, FIGS. 3A-3B
Experimental: Animals were grouped according to body weight (five animals per group) one day before administration (Zhejiang Vital River Laboratory Animal Technology Co. Ltd, male, body weight: 170-220 g). […] Luciferase mRNA was encapsulated in said lipid nanoparticle compositions.
The administration volume is 10 mL/kg, and the administration dosage is 3 mg/kg.

balb/c mice = assay: Extrahepatic delivery of Luciferase mRNA LNPs after intravenous injection, organ fluorescence (liver, spleen, stomach, intestine tract); assay type: in vivo; conditions: 20 μg LNP intravenous, 24 hours, FIGS. 2A-2D, compared with MC3 and Compound 20A groups
Experimental: Five balb/c mice (Zhejiang Vital River Laboratory Animal Technology Co., Ltd, female, 6-8 weeks old, 18-20 g) were taken as a group, labeled with a black marker pen on the tail with numbers 1 # to 5 #; five mice in each group were sequentially injected intravenously with 20 μg of the lipid nanoparticle composition. The lipid nanoparticle compositions of the present invention were prepared according to Test Example 1, in which Luciferase mRNA was encapsulated. A phosphate buffered saline (PBS) group was set up in parallel as a blank control, and an MC3 group was set up as a reference (obtained by preparation according to the method and ratio of Test Example 1).
Fluorescence assay was performed for each group of mice at 24 hours after intravenous administration of the samples ([…] YEASEN,LOT:D5330150, IP, 150 mg/kg was administered 10 minutes in advance for each group), the mice were anesthetized, and then put into a small animal living optical imaging system-IVIS® Lumina LT Series III according to the orders from tail mark 1 # to 5 #. The whole-body fluorescence was detected to evaluate the delivery and the expression of the prepared Luciferase mRNA.
At the end of the test, the mice were sacrificed by cervical dislocation, and the liver, spleen, stomach, and intestine tract were harvested, and the organs were discharged according to the corresponding positions from 1 # to 5 # for fluorescence detection of the organs.

| SMILES | PDI [1] | Particle Size [1] [nm] | Encapsulation Efficiency [2] [%] | aspartate aminotransferase and alanine aminotransferase values compared with MC3 and SM102 groups (rats) | extrahepatic delivery effect (balb/c mice) |
| --- | --- | --- | --- | --- | --- |
| CCCCCCCCCCCOC(=O)CCCCCC1(CCCCCCCC(=O)OC(CCCCCCCC)CCCCCCCC)OCC(CCCN(C)C)O1 (stereo not shown) [Compound 13] | 0.16 | 98.15 | 89.3 | lower than those of the groups of the ionizable lipids MC3 and SM102 | significant extrahepatic delivery effects |
| CCCCCCCCCCC(=O)OCCCCCCC1(CCCCCCCC(=O)OC(CCCCCCCC)CCCCCCCC)OC[C@H](CCN(C)C)O1 (stereo partly shown) [Compound 5A] | 0.1311 | 73.41 | 96.0 | lower than those of the groups of the ionizable lipids MC3 and SM102 | significant extrahepatic delivery effects |
